From patent US20220170940A1, “BIOMARKER WITH THERAPEUTIC IMPLICATIONS FOR PERITONEAL CARCINOMATOSIS” (SINGAPORE HEALTH SERVICES PTE LTD, priority 2019, published 2022)

Experiments:
Colo-205 cells [1] = assay: In vitro drug treatment, CellTitreGlo proliferation of cell-free ascites-treated cells; format: cell-based, Human; details: 5% cell-free ascites of PPA, CAP, APA groups or FBS control, 72 hours
Description: A total of 5,000 cells/wells were seeded in 96-well plates and were grown for 24 hours in serum-free RPMI medium supplemented with 5% cell-free ascites or complete media, and then treated with various concentrations of TM5441 (PAI-1 inhibitor), Tiplaxtinin (PAI-1 inhibitor), Napabucasin (STAT3 inhibitor), BEZ235 (dual PI3K/mTOR inhibitor) and Mitomycin C (chemotherapeutic agent used in hyperthermic intraperitoneal chemotherapy (HIPEC)) for 72 hours. Cell proliferation was assessed using CellTitreGlo assay (Promega, Madison, US). These experiments were performed in triplicates and were repeated at least 3 times.

phospho-STAT3 (Tyr705) = assay: p-STAT3 (Y705) ELISA of cell-free ascites-treated cancer cells with TM5441; format: cell-based, Human; details: cells exposed to PPA cell-free ascites (PC085, PC383) versus CAP (PC249) and APA (PC010)
Description: Concentrations of PAI-1 (DSE100), IL6 (D6050), IL10 (D1000B), CCL2 (DCP00), MMP9 (DMP900), ANGPT1 (DANG10), TGFB1 (DB100B), and CXCL10 (DIP100) in cell-free ascites were quantified using human Quantikine ELISA kits from R&D Systems. Concentrations of POSTN (DY3548B) and CD44 (DY7045-05) in cell-free ascites were quantified using human DuoSet ELISA kits from R&D Systems. VSIG4 (ELH-VSIG4-1) concentration in cell-free ascites was quantified using ELISA from RayBiotech. All samples were performed with 2 technical replicates according to the manufacturers' instructions. Total STAT3 and phospho-STAT3 (Tyr705) were detected with ELISA (7305C and 7300C, Cell Signalling Technology, Massachusetts, US). Proteins were isolated from cell lysates of Colo-205 and SNU-C1 that were treated with 5% cell-free ascites for 24 hours. In all experiments, 25 μg of protein was used for total STAT3 and p-STAT3(Y705) ELISA following the manufacturer's instructions.

[2] = system: IL6-JAK-STAT3 signalling pathway; assay: Gene expression profiling (RNA microarray, GSEA) upon PAI-1 inhibition; format: cell-based, Human; details: Colo-205 cells, PPA cell-free ascites (PC085), 27.25 μM TM5441 vs DMSO, 24 hours
Description: To assess signalling pathways affected by PAI-1 inhibition, Colo-205 cells were treated with cell-free ascites representative of PAI-1 paracrine addicted (PPA) group, co-activators predominant (CAP) group or foetal bovine serum (FBS; control) in the presence of DMSO vehicle or 27.25 μM TM5441 for 24 hours. Total RNA was isolated using Qiagen Mini Kit (Qiagen, CA, USA), following the manufacturer's instructions. Gene expression profiling was performed using Affymetrix GeneChip Genome U133 Plus 2.0 microarray platform (Affymetrix, Santa Clara, Calif.) in accordance to manufacturer's protocols. Microarray data was uploaded into the free programming software R (R Foundation for Statistical Computing, Vienna, Austria) for processing and normalization. Gene Set Enrichment Analysis (GSEA) was used to assess enrichment of genes showing up- and down-regulation using GSEA graphical user interface (GUI) software (http://www.broadinstitute.org/gsea/).

Colo-205 cells [3] = assay: In vivo PC cell line mouse model drug treatment (ascites groups); set-up: species or system BALB/c nude mice; details: PPA cell-free ascites (PC085)-treated mice; 1.75 mM TM5441 i.p. every 3 days for 21 days; n=5 mice/group
Description: To determine the efficacy of PAI-1 inhibition in different susceptibility ascites groups in vivo, 5×10^6 of Colo-205 cells were co-injected with cell-free ascites representative of PAI-1 paracrine addicted (PPA) group, co-activators predominant (CAP) group or foetal bovine serum (FBS) into abdominal cavity of 6- to 8-week-old BALB/c nude mice (female, n=5 mice/group) and treated with 1.75 mM TM5441 administered intraperitoneally. Ascites and drug treatment were performed by injecting 400 μL of 5% cell-free ascites or 10% foetal bovine serum (FBS) with TM5441 intraperitoneally every 3 days for a duration of 21 days. After 3 weeks, the mice were sacrificed and tumour burden was quantified based on a modified peritoneal carcinomatosis index (PCI) score and presented as total peritoneal carcinomatosis index (PCI) score. Total peritoneal carcinomatosis index (PCI) score was calculated based on the sum of score for each region and ranges from 0 to 39.

Colo-205 cells [4] = assay: In vivo PC cell line mouse model, drug concentration and delivery method (i.p. vs oral); set-up: species or system BALB/c nude mice; details: PPA cell-free ascites (PC085); i.p. every 3 days up to 21 days; n=4 mice/group
Description: To determine the optimal drug concentration and drug delivery method, a total of 16 female BALB/c nude mice with the age of 6-8 weeks old were selected for the experiment. Each mouse was injected with 5×10^6 of Colo-205 cells intraperitoneally. The mice were divided into 4 groups and given the following treatments: (i) 5% cell-free ascites with 1% DMSO, (ii) 5% cell-free ascites with 1 mM TM5441, (iii and iv) 5% cell-free ascites with 2 mM TM5441. Treatment was performed by injecting 400 μL of 5% cell-free ascites with DMSO vehicle/drug intraperitoneally (i-iii) and orally (iv) every 3 days, up to 21 days. After 3 weeks, the mice were sacrificed and tumour burden was quantified based on a modified peritoneal carcinomatosis index (PCI) score and presented as total peritoneal carcinomatosis index (PCI) score. Total peritoneal carcinomatosis index (PCI) score was calculated based on the sum of score for each region and ranges from 0 to 39.

[5] = system: patient-derived ascites-dependent xenograft (PDADX) tumours; assay: Patient-derived ascites-dependent xenografts (PDADXs) drug treatment; format: in vivo, BALB/c nude mice; details: 2 mM TM5441 i.p. every 3 days for 21 days
Description: Ascites collected from patients with peritoneal carcinomatosis were centrifuged at 2000 g for 10 minutes to concentrate the cellular components and to separate the fluid component. 1 mL of cell pellet was resuspended with 1 mL of ascitic fluid and 400 μL of the mixture was implanted intraperitoneally into 6-week-old BALB/c nude mice (n=5 mice) to generate patient-derived ascites-dependent xenograft (PDADX) passage 0 (P0). For subsequent passages, patient-derived ascites-dependent xenograft (PDADX) tumours were diced into small pieces using scalpel blades and passed through an 18-G syringe needle. Diced tumours were resuspended with matched patient's ascites at 1:1 ratio and implanted intraperitoneally into 6-week-old BALB/c nude mice (n=10 mice).
Matched patient's cell-free ascites and its cellular components were used to generate patient-derived ascites-dependent xenografts (PDADXs) to better recapitulate peritoneal carcinomatosis patients. PAI-1 paracrine addicted (PPA) patient-derived ascites-dependent xenograft (PDADX) tumours (100 mg) were implanted into 16 female BALB/c nude mice intraperitoneally and co-activators predominant (CAP) patient-derived ascites-dependent xenograft (PDADX) tumours (100 mg) were implanted into 16 female BALB/c nude mice intraperitoneally. […] Tumour burden was quantified by weighing all visible tumours after mice were sacrificed.
Briefly, co-activators predominant (CAP) patient-derived ascites-dependent xenograft (PDADX) tumours (100 mg) were implanted into 16 female BALB/c nude mice intraperitoneally. […] Tumour burden was quantified by weighing all visible tumours after mice were sacrificed.

Compound: Cn1c(=O)n(-c2ccc(C(C)(C)C#N)cc2)c2c3cc(-c4cnc5ccccc5c4)ccc3ncc21 [BEZ235]
- Sensitivity of cell-free ascites-treated Colo-205 cells to inhibitor (dose-response, cell proliferation) (Colo-205 cells [1]): ineffective

Compound: CO[C@@]12[C@H](COC(N)=O)C3=C(C(=O)C(C)=C(N)C3=O)N1C[C@@H]1N[C@@H]12 [Mitomycin C]
- Sensitivity of cell-free ascites-treated Colo-205 cells to inhibitor (dose-response, cell proliferation) (Colo-205 cells [1]): ineffective

Compound: CC(=O)c1cc2c(o1)C(=O)c1ccccc1C2=O [Napabucasin]
- Sensitivity of cell-free ascites-treated Colo-205 cells to inhibitor (dose-response, cell proliferation) (Colo-205 cells [1]): ineffective

Compound: O=C(COCC(=O)Nc1ccc(Cl)cc1C(=O)[O-])Nc1cccc(-c2ccoc2)c1.[Na+] [TM5441, 5-Chloro-2-[[2-[2-[[3-(3-furanyl)phenyl]amino]-2-oxoethoxy]acetyl]amino]benzoic acid sodium salt]
- Sensitivity of cell-free ascites-treated Colo-205 cells to inhibitor (dose-response, cell proliferation) (Colo-205 cells [1]): PAI-1 paracrine addicted (PPA) (n=18) being the most sensitive to PAI-1 inhibition, followed by co-activators predominant (CAP) (n=59) and alternative pathways activation (APA) (n=17)
- Concentration needed to suppress STAT3 activation (p-STAT3 ELISA) (phospho-STAT3 (Tyr705)): required a lower concentration of TM5441 to supress STAT3 activation
- IL6-JAK-STAT3 signalling pathway regulation (GSEA) [2]: significantly down-regulated
- Tumour burden (modified PCI score) (Colo-205 cells [3]): significant reduction in tumour burden
- Formation of peritoneal tumours (modified PCI score), intraperitoneal instillation (Colo-205 cells [4]): effectively inhibited
- Tumour burden (weight of all visible tumours), PC249 PDADX with PPA cell-free ascites (PC383) ([5]; CAP PDADX (PC249) exposed to PC383 PPA ascites): became susceptible to PAI-1 inhibition
- Tumour burden (weight of all visible tumours), PC249 PDADX with matched cell-free ascites ([5]; CAP PDADX (PC249), matched CAP ascites): no reduction in tumour burden compared to vehicle control
- Tumour burden (weight of all visible tumours), PC383 PDADX with matched cell-free ascites ([5]; PPA PDADX (PC383), matched PPA ascites, n=4 mice/group): significantly superior inhibition of tumour growth compared to vehicle control

Compound: O=C(O)C(=O)c1cn(Cc2ccccc2)c2ccc(-c3ccc(OC(F)(F)F)cc3)cc12 [Tiplaxtinin, 2-(1-Benzyl-5-(4-(trifluoromethoxy)phenyl)-1H-indol-3-yl)oxoacetic acid]
- Sensitivity of cell-free ascites-treated Colo-205 cells to inhibitor (dose-response, cell proliferation) (Colo-205 cells [1]): showed the same trend of differential response
